Source: patent publication US20220193081A1 (Ellamed IP & Services PTE. LTD., priority 2019, published 2022)
Like-named read-outs stand apart in the source and are kept apart here. Marks after values point to notes of the source that are not given here.

Assays:
[1] = tablets or oral suspension; cited from earlier work
[2] = Ionic strength study, visual inspection: sildenafil citrate and sucralose in absolute alcohol mixed with equal volume of NaCl solution or purified water (Example 3); assay type: physicochemical
Description: The mixtures were then either placed on storage or NaOH 1N solution was introduced to reach a predetermined pH values. Before being placed on storage, and at time points 7 and 42 days, the concentration of sildenafil in the mixtures were assayed using HPLC. The samples were then stored at either −20° C., 2-8° C. or 25° C. for periods of up to 42 days. Periodically, the samples were visually inspected for evidence of crystallization.

[3] = Maximum dissolution study in 50% aqueous ethanol, HPLC assay (Example 5); assay type: physicochemical; conditions: added until precipitation occurred, pH 5.5, NaOH
Description: (§1) Before being placed on storage, and at time points 7, 42 days and 2 months, the concentration of sildenafil in the mixtures were assayed using HPLC. The samples were then stored at either −20° C., 2-8° C. or 25° C. for periods of up to 2 months. Periodically, the samples were visually inspected for evidence of crystallization.

[4] = Maximum dissolution study in 50% aqueous ethanol, visual inspection (Example 5); assay type: physicochemical; conditions: pH 5.5, NaOH
Description: as §1

[5] = Visual inspection on storage of sildenafil citrate with equal concentration of sucralose in pH adjusted 50% ethanol (Example 2); assay type: physicochemical
Description: At room temperature, a phosphate buffer was prepared by weighing 3.9 g of NaH2PO4.2H2O into a 500 mL volumetric flask and adding approximately 300 mL of purified water until the phosphate fully dissolved. The pH was then adjusted to 7 with the introduction of NaOH and dilute to the requisite volume by the further addition of purified water.
A 50% ethanol mixture was prepared by introducing either purified water, taken from a MilliQ™ unit or phosphate buffer, to equivalent volumes of Ph.Eur. grade absolute alcohol. The pH of the resultant mixture was then adjusted by using either NaOH 1N solutions and/or Sodium Citrate 1N solutions to reach predetermined pH values.
Samples of sucralose were then dissolved in the pH adjusted 50% ethanol, whilst stirred with a magnetic stirrer and a needle, to a predetermined concentration. […] After preparation, the solutions were each filtered through PDVF 0.22 micro filter of 13 mm in size and placed in polypropylene containers of adequate volume.
Before being placed on storage, and at time points 7 and 42 days, the concentration of sildenafil in the mixture was assayed using HPLC. The samples were then stored at either −20° C., 2-8° C. or 25° C. for periods of up to 42 days. Periodically, the samples were visually inspected for evidence of precipitation or crystallization. […]

[6] = HPLC assay on storage of sildenafil citrate in buffered 60% aqueous ethanol (Example 4); assay type: physicochemical; conditions: pH 5.5, NaOH
Description: Before being placed on storage, and at time points 7 and 42 days, the concentration of sildenafil in the mixtures were assayed using HPLC. The samples were then stored at either −20° C., 2-8° C. or 25° C. for periods of up to 42 days. Periodically, the samples were visually inspected for evidence of crystallization.

[7] = cited from earlier work
[8] = EMEA CHMP Assessment Report for VIZARSIN
[9] = Jordanian Pharmaceutical Manufacturing Co.

CCCc1nn(C)c2c(=O)nc(-c3cc(S(=O)(=O)N4CCN(C)CC4)ccc3OCC)[nH]c12.O=C(O)CC(O)(CC(=O)O)C(=O)O [sildenafil citrate, 1-[[3-(4,7-Dihydro-1-methyl-7-oxo-3-propyl-1H-pyrazolo[4,3-d]pyrimidin-5-yl)-4-ethoxyphenyl]sulfonyl]-4-methylpiperazine citrate salt]
absolute bioavailability [1]: about 41% | visual inspection for crystallization ([2]; 15 mg/ml, pH 4.39, NaCl diluent 100 mM, initially added to 40 ml of diluent, −20° C.): Prec. | visual inspection for crystallization ([2]; 15 mg/ml, pH 4.45, NaCl diluent 50 mM, −20° C.): Prec. | visual inspection for crystallization ([2]; 15 mg/ml, pH 4.52, NaCl diluent 25 mM, 2-8° C.): Prec. | visual inspection for crystallization ([2]; 15 mg/ml, pH 4.52, NaCl diluent 25 mM, −20° C.): Prec. | visual inspection for crystallization ([2]; 15 mg/ml, pH 4.75, purified water diluent, 2-8° C.): Prec. | visual inspection for crystallization ([2]; 15 mg/ml, pH 4.75, purified water diluent, −20° C.): Prec. | visual inspection for crystallization ([2]; 18 mg/ml, pH 5.5 (NaOH), NaCl diluent 100 mM, −20° C.): Prec. | visual inspection for crystallization ([2]; 21 mg/ml, pH 5.5 (NaOH), NaCl diluent 100 mM, −20° C.): Prec. | Day 0 concentration sildenafil ([3]; with sucralose (second sample)): 82.79* mg/ml | Day 0 concentration sildenafil ([3]; with sucralose (third sample)): 123.95* mg/ml | Day 0 concentration sildenafil ([3]; without sucralose (first sample)): 51.65 mg/mL | visual inspection for crystallization ([4]; Day 0 51.65 mg/ml, without sucralose, 2-8° C.): Prec. | visual inspection for crystallization ([4]; Day 0 51.65 mg/ml, without sucralose, −20° C.): Prec. | visual inspection for crystallization ([4]; Day 0 82.79 mg/ml, with sucralose, 2-8° C.): Prec. | visual inspection for crystallization ([4]; Day 0 82.79 mg/ml, with sucralose, −20° C.): Prec. | visual inspection for crystallization ([4]; Day 0 123.95 mg/ml, with sucralose, 25° C. (single cell in the row)): Prec. | visual inspection for precipitation or crystallization ([5]; 15 mg/ml, pH 5.0, Sodium Citrate, 2-8° C.): Prec. | visual inspection for precipitation or crystallization ([5]; 15 mg/ml, pH 5.0, Sodium Citrate, 25° C.): Prec. | visual inspection for precipitation or crystallization ([5]; 15 mg/ml, pH 5.0, Sodium Citrate, −20° C.): Prec. | visual inspection for precipitation or crystallization ([5]; 15 mg/ml, pH 5.2, NaOH, −20° C.): Prec. | visual inspection for precipitation or crystallization ([5]; 15 mg/ml, pH 6.01, NaOH, 50% ethanol/phosphate buffer, 2-8° C.): Prec. | visual inspection for precipitation or crystallization ([5]; 15 mg/ml, pH 6.01, NaOH, 50% ethanol/phosphate buffer, −20° C.): Prec. | visual inspection for precipitation or crystallization ([5]; 15 mg/ml, pH 6.2, NaOH, 2-8° C.): Prec. | visual inspection for precipitation or crystallization ([5]; 15 mg/ml, pH 6.2, NaOH, 25° C.): Prec. | visual inspection for precipitation or crystallization ([5]; 15 mg/ml, pH 6.2, NaOH, −20° C.): Prec. | visual inspection for precipitation or crystallization ([5]; 15 mg/ml, pH 6.2, Sodium Citrate, 2-8° C.): Prec. | visual inspection for precipitation or crystallization ([5]; 15 mg/ml, pH 6.2, Sodium Citrate, −20° C.): Prec. | visual inspection for precipitation or crystallization ([5]; 18 mg/ml, pH 5.2, NaOH, −20° C.): Prec. | visual inspection for precipitation or crystallization ([5]; 18 mg/ml, pH 5.2, Sodium Citrate, −20° C.): Prec. | visual inspection for precipitation or crystallization ([5]; 18 mg/ml, pH 6.0, NaOH, 50% ethanol/phosphate buffer, 2-8° C.): Prec. | visual inspection for precipitation or crystallization ([5]; 18 mg/ml, pH 6.0, NaOH, 50% ethanol/phosphate buffer, −20° C.): Prec. | visual inspection for precipitation or crystallization ([5]; 18 mg/ml, pH 6.0, Sodium Citrate, 2-8° C.): Prec. | visual inspection for precipitation or crystallization ([5]; 18 mg/ml, pH 6.0, Sodium Citrate, −20° C.): Prec. | visual inspection for precipitation or crystallization ([5]; 18 mg/ml, pH 6.2, NaOH, 2-8° C.): Prec. | visual inspection for precipitation or crystallization ([5]; 18 mg/ml, pH 6.2, NaOH, 25° C.): Prec. | visual inspection for precipitation or crystallization ([5]; 18 mg/ml, pH 6.2, NaOH, −20° C.): Prec. | visual inspection for precipitation or crystallization ([5]; 21 mg/ml, pH 5.29, NaOH, 50% ethanol/phosphate buffer, −20° C.): Prec. | visual inspection for precipitation or crystallization ([5]; 21 mg/ml, pH 5.5, NaOH, −20° C.): Prec. | visual inspection for precipitation or crystallization ([5]; 21 mg/ml, pH 5.5, Sodium Citrate, −20° C.): Prec. | visual inspection for precipitation or crystallization ([5]; 21 mg/ml, pH 5.6, NaOH, 50% ethanol/phosphate buffer, 2-8° C.): Prec. | visual inspection for precipitation or crystallization ([5]; 21 mg/ml, pH 5.6, NaOH, 50% ethanol/phosphate buffer, −20° C.): Prec. | visual inspection for precipitation or crystallization ([5]; 21 mg/ml, pH 5.8, NaOH, 2-8° C.): Prec. | visual inspection for precipitation or crystallization ([5]; 21 mg/ml, pH 6.01, NaOH, 50% ethanol/phosphate buffer, 2-8° C.): Prec. | visual inspection for precipitation or crystallization ([5]; 21 mg/ml, pH 6.01, NaOH, 50% ethanol/phosphate buffer, −20° C.): Prec. | concentration of sildenafil by HPLC ([6]; 18 mg/ml, with sucralose, 2-8 ° C., Day 7): 18550 µg/mL | concentration of sildenafil by HPLC ([6]; 18 mg/ml, with sucralose, 2-8 ° C., Day 42): 15240 µg/mL | concentration of sildenafil by HPLC ([6]; 18 mg/ml, with sucralose, 25 ° C., Day 7): 18000 µg/mL | concentration of sildenafil by HPLC ([6]; 18 mg/ml, with sucralose, 25 ° C., Day 42): 17940 µg/mL | concentration of sildenafil by HPLC ([6]; 18 mg/ml, with sucralose, Day 0): 17560 µg/mL | concentration of sildenafil by HPLC ([6]; 18 mg/ml, without sucralose, 2-8 ° C., Day 7): 18330 µg/mL | concentration of sildenafil by HPLC ([6]; 18 mg/ml, without sucralose, 2-8 ° C., Day 42): 15230 µg/mL | concentration of sildenafil by HPLC ([6]; 18 mg/ml, without sucralose, 25 ° C., Day 7): 18080 µg/mL | concentration of sildenafil by HPLC ([6]; 18 mg/ml, without sucralose, 25 ° C., Day 42): 17190 µg/mL | concentration of sildenafil by HPLC ([6]; 18 mg/ml, without sucralose, Day 0): 17420 µg/mL | concentration of sildenafil by HPLC ([6]; 21 mg/ml, without sucralose, 2-8 ° C., Day 7): 22110 µg/mL | concentration of sildenafil by HPLC ([6]; 21 mg/ml, without sucralose, 2-8 ° C., Day 42): 13780 µg/mL | concentration of sildenafil by HPLC ([6]; 21 mg/ml, without sucralose, 25 ° C., Day 7): 20400 µg/mL | concentration of sildenafil by HPLC ([6]; 21 mg/ml, without sucralose, 25 ° C., Day 42): 19610 µg/mL | concentration of sildenafil by HPLC ([6]; 21 mg/ml, without sucralose, Day 0): 20520 µg/mL | solubility in acetone [7, 8]: insoluble | solubility in chloroform [7, 8]: insoluble | solubility in dimethyl sulfoxide (DMSO) [7, 8]: soluble | solubility in ethanol [7, 8]: insoluble | solubility in methanol [7, 8]: soluble | solubility in ethanol [7, 9]: ~1 mg/mL | times less soluble in ethanol than in water [7, 9]: about 3.5 times
